Paper PMC11724075, “Small-molecule-induced ERBB4 activation to treat heart failure” (Nature Communications, 2025)
Values joined by “and” are separate entries in the source; they are usually repeats but may differ in a detail not shown here. Equal entries are not always repeated.

Columns and labels:
ERBB2/ERBB3 = molecular target: T1, ERBB2/ERBB3 (Homo sapiens, UniProt P21860); assay: PathHunter U2OS ERBB2/ERBB3 dimerization assay; assay type: cell-based; details: for ERBB3/ERBB2 dimerization signal: relative to signal with 0.1 µM NRG1, single biological replicates
T1 construct: host or cells: U2OS (osteosarcoma cells), PathHunter engineered line
Description: PathHunter U2OS ERBB4/ERBB4 (osteosarcoma cells; Eurofins, 93-0961C3), U2OS ERBB2/ERBB4 (osteosarcoma cells; Eurofins, 493-0960C3), ERBB2/ERBB3 (osteosarcoma cells; Eurofins, 93-1042C3) and ERBB1/ERBB1 (osteosarcoma cells; Eurofins, 93-0989C3) dimerization cell lines were cultured according to the manufacturer’s instructions. Briefly, cells were cultured in Cell Culture Reagent 103 (Eurofins, 92-3103 G) supplemented with 250 µg/mL Hygromycin B (Eurofins, 92-0029) and 500 µg/mL G418 (Eurofins, 92-0030), and were maintained at 37 °C in humidified atmosphere of 5% CO2. HCFs (Innoprot, P10454) were cultured in fibroblast medium (Innoprot, P60108) supplemented with 10% (v/v) fetal bovine serum (FBS, Innoprot), 10% (v/v) fibroblast growth supplement (Innoprot), and 1% (v/v) penicillin/streptomycin solution (Innoprot). iAMs[33] (kindly provided by LUMC) were cultured in Advanced DMEM F-12 (Thermo Fisher Scientific, 12634028) supplemented with 2% (v/v) heat-inactivated FBS (Thermo Fisher Scientific, 10270106), 1% (v/v) penicillin/streptomycin (10,000 units/mL and 10 mg/mL respectively, Thermo Fisher Scientific, 15140122), 1× GlutaMAX (Thermo Fisher Scientific, 35050061), and 100 ng/mL doxycycline (Tocris, 4090) for proliferation. To induce differentiation, iAMs were transferred to medium without doxycycline.
U2OS ERBB4/ERBB4 dimerization cells were seeded at a density of 5 × 10^4 cells/well in 100 µL Cell Plating 0 Reagent, in white 96-well plates (PerkinElmer, 6005680) and incubated for 24 h at 37 °C, 5% CO2. […] Next, 110 µL PathHunter Flash Detection Reagent was added to each well and incubated at RT for 1 h after which the luminescence signal was measured using the Luminoskan Ascent (Thermo Fisher Scientific). […] The same experimental set-up was used for the U2OS ERBB2/ERBB4, U2OS ERBB2/ERBB3 and U2OS ERBB1/ERBB1 dimerization cell lines.

iAMs [1] = assay: WST-1 cell viability assay in H2O2-treated iAMs; assay type: cell-based, rat; parameters: In vitro cell viability assay with WST-1: unit not given here
Description: Following the transfer of 150 µL of culture medium for the ToxiLight assay, 7 µL of WST-1 reagent (Merck, 5015944001) was added directly to the remaining cell culture medium in each well. The cells were incubated at 37 °C for an additional 4 h. After incubation, the absorbance of the samples was measured at 450 nm (690 nm was used as reference wavelength and subtracted) using a microplate reader (Epoch). […]

iAMs [2] = assay: Cardiomyocyte hypertrophy assay: CSA of iAMs after AngII, also with PD98059; assay type: cell-based, rat
Description: iAMs were seeded at a density of 10^4 cells/well in differentiation medium in 24-well plates (Greiner Bio-One, 662160) and differentiated over 9 days (d0 = day of seeding). […] To determine CSA, cells were fixed with 4% paraformaldehyde (PFA, Thermo Fisher Scientific, 043368.9 M) for 30 min at 4 °C. Cells were washed thrice with PBS and permeabilized by incubation with 0.1% Triton X-100 (Merck, 10789704001) for 10 min at RT. iAMs were stained with Alexa Fluor 568 phalloidin (Thermo Fisher Scientific, A12380) in 1% BSA-PBS solution for 1 h at RT. After washing 3 times with PBS, DAPI (Merck, D9542) was added. Images were obtained by fluorescence microscopy (Celena S).
CSA was quantified using an automated algorithm, custom-made in Python[67]. The mode mD (maximum of the histogram) of DAPI intensities (excluding 0) was determined and binary segmentation of nuclei was created with threshold mD + SDD (with SDD the SD of DAPI intensities). Distinct objects with an area less than 500 pixels and nuclei where the average overlapping iAM signal was less than mdA + 0.5 SDA (with mdA and SDA the median and SD of the Alexa Fluor 568 intensity, respectively) were removed. […]

T1 sequence (P21860 20-1342): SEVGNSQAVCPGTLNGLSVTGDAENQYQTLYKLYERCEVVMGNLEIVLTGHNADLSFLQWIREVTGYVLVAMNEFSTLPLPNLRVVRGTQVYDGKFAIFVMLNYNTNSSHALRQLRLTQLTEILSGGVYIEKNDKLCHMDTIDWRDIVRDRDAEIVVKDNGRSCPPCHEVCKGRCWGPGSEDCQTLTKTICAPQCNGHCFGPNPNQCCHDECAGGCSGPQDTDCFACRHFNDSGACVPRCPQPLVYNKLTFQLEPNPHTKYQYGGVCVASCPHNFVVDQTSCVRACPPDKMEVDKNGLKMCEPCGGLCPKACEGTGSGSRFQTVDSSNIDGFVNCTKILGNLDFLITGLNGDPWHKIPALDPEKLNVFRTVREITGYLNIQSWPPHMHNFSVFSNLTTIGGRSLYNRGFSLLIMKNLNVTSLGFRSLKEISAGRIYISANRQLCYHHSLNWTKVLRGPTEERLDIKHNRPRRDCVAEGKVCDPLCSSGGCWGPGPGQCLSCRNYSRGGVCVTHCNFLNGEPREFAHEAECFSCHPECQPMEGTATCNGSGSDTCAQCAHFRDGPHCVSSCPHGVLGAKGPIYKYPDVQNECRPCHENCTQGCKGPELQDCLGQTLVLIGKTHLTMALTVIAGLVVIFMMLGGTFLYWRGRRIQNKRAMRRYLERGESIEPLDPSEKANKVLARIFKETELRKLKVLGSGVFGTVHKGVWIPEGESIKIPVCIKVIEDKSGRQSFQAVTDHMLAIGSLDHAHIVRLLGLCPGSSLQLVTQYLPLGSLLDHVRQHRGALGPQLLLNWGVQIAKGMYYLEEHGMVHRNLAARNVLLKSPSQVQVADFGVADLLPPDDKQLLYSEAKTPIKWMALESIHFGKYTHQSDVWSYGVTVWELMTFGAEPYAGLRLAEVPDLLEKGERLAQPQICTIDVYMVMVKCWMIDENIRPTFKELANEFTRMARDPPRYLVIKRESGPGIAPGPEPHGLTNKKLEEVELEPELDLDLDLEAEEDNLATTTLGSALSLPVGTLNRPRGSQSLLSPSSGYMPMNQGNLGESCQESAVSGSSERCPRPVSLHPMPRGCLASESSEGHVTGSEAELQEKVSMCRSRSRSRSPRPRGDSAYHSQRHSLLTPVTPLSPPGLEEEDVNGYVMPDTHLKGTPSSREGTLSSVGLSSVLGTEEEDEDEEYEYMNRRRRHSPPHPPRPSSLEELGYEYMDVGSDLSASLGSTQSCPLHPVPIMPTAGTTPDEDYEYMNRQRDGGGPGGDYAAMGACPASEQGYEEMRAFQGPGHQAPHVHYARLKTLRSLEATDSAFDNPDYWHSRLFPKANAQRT
T1 sequence (P04626 23-1255, further chain): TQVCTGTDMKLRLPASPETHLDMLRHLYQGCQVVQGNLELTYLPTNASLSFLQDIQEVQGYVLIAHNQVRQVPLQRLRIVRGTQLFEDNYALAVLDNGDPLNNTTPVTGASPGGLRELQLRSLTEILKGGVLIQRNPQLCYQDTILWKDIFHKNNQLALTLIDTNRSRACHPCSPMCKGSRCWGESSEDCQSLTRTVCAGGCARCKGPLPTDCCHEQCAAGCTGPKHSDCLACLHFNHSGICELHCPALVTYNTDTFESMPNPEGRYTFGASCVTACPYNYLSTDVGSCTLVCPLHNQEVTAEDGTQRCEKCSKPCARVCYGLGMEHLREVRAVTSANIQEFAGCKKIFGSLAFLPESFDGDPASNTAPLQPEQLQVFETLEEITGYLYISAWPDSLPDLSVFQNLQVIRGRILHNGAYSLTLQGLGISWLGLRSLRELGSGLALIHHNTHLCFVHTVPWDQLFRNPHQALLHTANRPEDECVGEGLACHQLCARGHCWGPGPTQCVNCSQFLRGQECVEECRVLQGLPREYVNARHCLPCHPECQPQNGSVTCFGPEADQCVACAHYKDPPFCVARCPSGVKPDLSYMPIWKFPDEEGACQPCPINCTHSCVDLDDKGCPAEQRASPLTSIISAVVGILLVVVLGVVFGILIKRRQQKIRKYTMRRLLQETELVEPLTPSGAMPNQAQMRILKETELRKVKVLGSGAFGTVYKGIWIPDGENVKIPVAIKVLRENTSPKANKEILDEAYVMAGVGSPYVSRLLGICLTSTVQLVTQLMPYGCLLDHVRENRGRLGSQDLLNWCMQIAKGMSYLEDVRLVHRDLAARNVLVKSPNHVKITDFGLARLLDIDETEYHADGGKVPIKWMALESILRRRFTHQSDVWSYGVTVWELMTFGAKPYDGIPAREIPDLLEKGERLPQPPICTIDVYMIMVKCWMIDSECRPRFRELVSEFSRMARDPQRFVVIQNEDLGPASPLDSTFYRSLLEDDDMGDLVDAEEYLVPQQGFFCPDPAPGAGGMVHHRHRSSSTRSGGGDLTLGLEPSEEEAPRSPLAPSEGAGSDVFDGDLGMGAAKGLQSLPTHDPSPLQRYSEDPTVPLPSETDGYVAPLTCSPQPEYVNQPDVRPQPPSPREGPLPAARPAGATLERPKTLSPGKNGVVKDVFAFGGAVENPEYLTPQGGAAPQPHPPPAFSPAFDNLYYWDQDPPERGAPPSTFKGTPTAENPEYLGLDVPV

Q: With `O=C(NC1CC1)C(Sc1nc2ccccc2c(=O)n1C1CCCC1)c1ccccc1` (stereo not drawn) [EF-1] as the molecule, how does the EC50 (ERBB2/ERBB3) read?
A: > 32 µM

Q: And the “stimulatory effect on ERBB2/ERBB3 heterodimerization (in words)” value (ERBB2/ERBB3)?
A: lower compared to ERBB4 homodimerization

Q: What about the ERBB3/ERBB2 dimerization signal (ERBB2/ERBB3; 3.125e-8 M) of the same molecule?
A: 0

Q: And the ERBB3/ERBB2 dimerization signal (ERBB2/ERBB3; 6.25e-8 M)?
A: 4.35 and 0.16 and -2.68 and -0.63 and -0.56

Q: And the ERBB3/ERBB2 dimerization signal (ERBB2/ERBB3; 1.25e-7 M)?
A: 2.37 and 0.16 and -2.68 and -1.68 and -1.97

Q: And the ERBB3/ERBB2 dimerization signal (ERBB2/ERBB3; 2.5e-7 M)?
A: 0.62 and 4.11 and 0.43 and -3.27 and -3.43

Q: What about the ERBB3/ERBB2 dimerization signal (ERBB2/ERBB3; 5e-7 M) of the same molecule?
A: 0.97 and 1.82 and 6.28 and 0.82 and -2.96 and -1.11

Q: What about the ERBB3/ERBB2 dimerization signal (ERBB2/ERBB3; 1e-6 M) of the same molecule?
A: 0.96 and 9.29 and 2.03 and -1.53 and -0.18

Q: What about the ERBB3/ERBB2 dimerization signal (ERBB2/ERBB3; 2e-6 M) of the same molecule?
A: 1.34 and 1.02 and 9.84 and 3.13 and 0.57 and 2.12

Q: And the ERBB3/ERBB2 dimerization signal (ERBB2/ERBB3; 4e-6 M)?
A: 3.1 and 10.27 and 4.36 and 4.61 and 5.16

Q: And the ERBB3/ERBB2 dimerization signal (ERBB2/ERBB3; 8e-6 M)?
A: 4.89 and 3.3 and 12.92 and 4.35 and 9.79 and 9.65

Q: What about the ERBB3/ERBB2 dimerization signal (ERBB2/ERBB3; 1.6e-5 M) of the same molecule?
A: 11.23 and 14.98 and 10.81 and 10.98 and 13.88

Q: And the ERBB3/ERBB2 dimerization signal (ERBB2/ERBB3; 3.2e-5 M)?
A: 23.82 and 14.98 and 24 and 17.43 and 15.59 and 14.95

Q: What about the “cell viability, WST-1 absorbance (in words)” value (iAMs [1]; 100 µM H2O2, pre-treatment with EF-1) of the same molecule?
A: significantly increased cell viability

Q: What about the “In vitro cell viability assay with WST-1” value (iAMs [1]; H2O2/EF-1, individual replicates) of the same molecule?
A: 1.268 and 0.9224 and 0.7959 and 0.7633 and 0.6939 and 1.2898 and 0.9164 and 0.8058 and 0.7767 and 0.7185 and 1.306 and 0.9585 and 0.8456 and 0.8168 and 0.7703 and 1.242 and 0.9643 and 0.8304 and 0.8393 and 0.7321

Q: And the “anti-hypertrophic effect of EF-1 under ERK1/2 pathway inhibition (PD98059) (in words)” value (iAMs [2])?
A: blocked upon inhibition of the ERK1/2 pathway

Q: And the “effect on AngII-induced increase in CSA (in words)” value (iAMs [2]; EF-1 4–32 µM)?
A: dose-dependently attenuated

Q: What about the “half-life with mouse microsomes” value of the same molecule?
A: 15 min
